Test results as given in patent publication US12708630B2, “Combined therapy of 4′-thio-5-aza-2′-deoxycytidine and Venetoclax” (PINOTBIO, INC., priority 2021, dated 2026).
Read-outs that look alike come from different tables or passages of the source.

Assays:
[1] = Pharmacokinetic evaluation in Mice (Table 4); conditions: mouse, in vivo; for half-life: read-out: T½ (converted)
Procedure: Aza-T-dCyd was administered orally and intravenously at various concentrations to Mice, Rats and Dogs to determine the PK profile.

[2] = Mouse AUC used for the human PK simulation; conditions: in vivo, mice, dose of 2.0 mg/kg
Procedure: The 96 mg/day must be divided by 3 or 4, resulting in 24 to 32 mg/day.

[3] = cited from earlier work
CEBP/epsilon, CDKN1B = assay: CEBP/epsilon and CDKN1B expression in AML cell lines; assay type: cell-based
Excerpt: CEBP/epsilon and CDKNIB expression was identified and comparatively analyzed in various AML cell lines to determine the mode of target engagement induced by DNMT1 inhibition upon treatment with Aza-T-dCyd (NTX-301) (FIG. 16).

[4] = system: ALL-Patient Derived Xenografts; assay: ALL-Patient Derived Xenografts (PDX); assay type: in vivo; conditions: doses tolerated up to 1.5 mg/kg (0.5, 1, 1.5, 2 mg/kg tested)
Procedure: To determine the efficacy of Aza-T-dCyd in another indication, T-ALL, we evaluated the efficacy of Aza-T-dCyd in a patient-derived ALL animal model.
Aza-T-dCyd was administered at doses of 0.5, 1, 1.5, and 2 mg/kg in ALL-Patient Derived Xenografts (PDX), with T-dCyd (DNMT1 inhibitor) used as a comparative control.

cytidine deaminase = assay: Degradation by cytidine deaminase
Excerpt: Decitabine/Azacytidine is susceptible to metabolism by cytidine deaminases in the body, resulting in an unstable PK profile that limits its efficacy.

DNMT1 = DNMT1 (Homo sapiens, UniProt P26358); assay: Western blotting of Molm13 xenograft cancer tissues, DNMT1; assay type: in vivo; design: endogenous in cells; conditions: after administration
Sequence of DNMT1 (P26358 whole entry): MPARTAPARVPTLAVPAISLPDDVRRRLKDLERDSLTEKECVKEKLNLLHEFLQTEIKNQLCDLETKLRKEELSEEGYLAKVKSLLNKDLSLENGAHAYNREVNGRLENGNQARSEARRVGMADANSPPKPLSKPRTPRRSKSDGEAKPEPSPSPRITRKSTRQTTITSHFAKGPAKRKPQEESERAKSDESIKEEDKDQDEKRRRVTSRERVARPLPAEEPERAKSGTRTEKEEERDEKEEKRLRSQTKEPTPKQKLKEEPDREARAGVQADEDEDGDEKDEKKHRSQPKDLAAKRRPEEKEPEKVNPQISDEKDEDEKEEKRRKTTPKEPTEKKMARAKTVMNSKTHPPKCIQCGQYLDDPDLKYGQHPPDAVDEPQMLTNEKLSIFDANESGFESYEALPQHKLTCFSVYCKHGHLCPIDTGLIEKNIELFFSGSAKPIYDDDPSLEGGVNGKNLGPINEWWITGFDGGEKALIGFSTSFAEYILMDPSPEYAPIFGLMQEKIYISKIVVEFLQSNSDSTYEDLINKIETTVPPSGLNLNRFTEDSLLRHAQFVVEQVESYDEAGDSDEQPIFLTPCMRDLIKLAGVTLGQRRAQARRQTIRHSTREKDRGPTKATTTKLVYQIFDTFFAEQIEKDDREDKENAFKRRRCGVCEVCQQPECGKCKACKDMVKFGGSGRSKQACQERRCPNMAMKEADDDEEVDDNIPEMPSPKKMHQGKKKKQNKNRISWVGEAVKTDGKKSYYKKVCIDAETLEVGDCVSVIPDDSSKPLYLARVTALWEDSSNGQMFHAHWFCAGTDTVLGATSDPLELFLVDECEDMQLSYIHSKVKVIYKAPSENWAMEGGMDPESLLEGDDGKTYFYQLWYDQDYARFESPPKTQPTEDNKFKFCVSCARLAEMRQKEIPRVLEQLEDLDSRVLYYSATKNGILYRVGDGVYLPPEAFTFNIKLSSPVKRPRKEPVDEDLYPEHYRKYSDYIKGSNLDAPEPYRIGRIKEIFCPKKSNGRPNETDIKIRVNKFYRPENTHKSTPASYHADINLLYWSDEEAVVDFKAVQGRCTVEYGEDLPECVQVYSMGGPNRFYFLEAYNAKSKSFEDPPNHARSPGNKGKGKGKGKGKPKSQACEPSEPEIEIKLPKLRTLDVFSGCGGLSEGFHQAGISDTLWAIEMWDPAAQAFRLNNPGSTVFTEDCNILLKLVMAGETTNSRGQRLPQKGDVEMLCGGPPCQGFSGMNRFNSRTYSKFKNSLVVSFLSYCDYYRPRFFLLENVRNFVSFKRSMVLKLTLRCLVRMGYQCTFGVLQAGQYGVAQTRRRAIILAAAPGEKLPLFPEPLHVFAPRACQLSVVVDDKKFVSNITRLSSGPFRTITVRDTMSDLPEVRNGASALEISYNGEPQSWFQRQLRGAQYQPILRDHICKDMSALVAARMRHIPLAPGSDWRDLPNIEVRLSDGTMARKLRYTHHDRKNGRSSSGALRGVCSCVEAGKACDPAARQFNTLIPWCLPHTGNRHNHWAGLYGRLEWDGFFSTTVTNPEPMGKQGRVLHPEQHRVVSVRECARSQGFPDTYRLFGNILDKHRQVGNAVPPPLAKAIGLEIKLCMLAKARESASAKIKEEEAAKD

Molm13 Xenograft model = assay: Molm13 Xenograft model; assay type: in vivo; conditions: oral 0.2-1.5 mg/kg

Which AUC(0-inf) ([1]; Table 4, IV 1 mg/kg) does the source give for `Nc1ncn([C@H]2CC(O)[C@@H](CO)S2)c(=O)n1` (stereo partly drawn) [Aza-T-dCyd, 4′-thio-5-aza-2′-deoxycytidine] here?
Its AUC(0-inf) is 0.406 µg·h/mL.

And the AUC(0-t) ([1]; Table 4, IV 1 mg/kg)?
The AUC(0-t) was 0.37 µg·h/mL.

And the Cmax ([1]; Table 4, IV 1 mg/kg)?
Its Cmax is 0.527 µg/mL.

What about the half-life ([1]; Table 4, IV 1 mg/kg) of the same compound?
The half-life was 36.7 min.

What about the AUC(0-inf) ([1]; Table 4, PO 0.5 mg/kg) of the same compound?
Its AUC(0-inf) is 0.131 µg·h/mL.

And the AUC(0-t) ([1]; Table 4, PO 0.5 mg/kg)?
The AUC(0-t) was 0.118 µg·h/mL.

And the Cmax ([1]; Table 4, PO 0.5 mg/kg)?
The Cmax was 0.211 µg/mL.

And the Tmax ([1]; Table 4, PO 0.5 mg/kg)?
Its Tmax is 30 min.

What about the half-life ([1]; Table 4, PO 0.5 mg/kg) of the same compound?
The half-life was 18.2 min.

What about the AUC(0-inf) ([1]; Table 4, PO 1 mg/kg) of the same compound?
The AUC(0-inf) was 0.235 µg·h/mL.

What about the AUC(0-t) ([1]; Table 4, PO 1 mg/kg) of the same compound?
The AUC(0-t) was 0.136 µg·h/mL.

And the Cmax ([1]; Table 4, PO 1 mg/kg)?
Its Cmax is 0.138 µg/mL.

And the Tmax ([1]; Table 4, PO 1 mg/kg)?
The Tmax was 15 min.

And the half-life ([1]; Table 4, PO 1 mg/kg)?
Its half-life is 103 min.

What about the AUC(0-inf) ([1]; Table 4, PO 3 mg/kg) of the same compound?
Its AUC(0-inf) is 0.443 µg·h/mL.

And the AUC(0-t) ([1]; Table 4, PO 3 mg/kg)?
Its AUC(0-t) is 0.303 µg·h/mL.

And the Cmax ([1]; Table 4, PO 3 mg/kg)?
Its Cmax is 0.256 µg/mL.

And the Tmax ([1]; Table 4, PO 3 mg/kg)?
Its Tmax is 15 min.

What about the half-life ([1]; Table 4, PO 3 mg/kg) of the same compound?
Its half-life is 66.6 min.

And the AUC(0-inf) ([1]; Table 4, PO 10 mg/kg)?
Its AUC(0-inf) is 1.47 µg·h/mL.

And the AUC(0-t) ([1]; Table 4, PO 10 mg/kg)?
The AUC(0-t) was 1.34 µg·h/mL.

What about the Cmax ([1]; Table 4, PO 10 mg/kg) of the same compound?
The Cmax was 0.863 µg/mL.

What about the Tmax ([1]; Table 4, PO 10 mg/kg) of the same compound?
Its Tmax is 20 min.

What about the half-life ([1]; Table 4, PO 10 mg/kg) of the same compound?
Its half-life is 69 min.

And the AUC [2]?
Its AUC is 0.369 µg·h/mL.

And the AUC value ([3]; 16 mg/day dose, NCI's Phase 1 trial)?
Its AUC value is “about 50 ng*h/mL”.

What about the side effects ([3]; Phase 1a, solid tumors, dose approximately twice that of conventional decitabine) of the same compound?
Its side effects is “no significant side effects were observed”.

And the disease control rate ([3]; clinical trials, 32 mg/day dose)?
The disease control rate was “high disease control rate”.

What about the “MTD dose in Phase 1” value ([3]; humans) of the same compound?
Its value is 32 mg.

And the “CEBP/epsilon and CDKN1B intracellular protein expression” value (CEBP/epsilon, CDKN1B; MV4-11, HL-60 and KG-1a cells, 72 hours)?
Its value is “expression of CEBP/epsilon and CDKN1B was increased”.

What about the “CEBP/epsilon and CDKN1B expression” value (CEBP/epsilon, CDKN1B; THP-1 cells, different concentrations) of the same compound?
The value was “increased CEBP/epsilon expression and CDKN1B expression”.

And the “efficacy in pediatric ALL PDX” value [4]?
The value was “highly effective”.

And the “rate of degradation by cytidine deaminase” value (cytidine deaminase)?
Its value is “slower rate of degradation by cytidine deaminase”.

And the “DNMT1 in cancer tissues (Western blotting)” value (DNMT1)?
Its value is “strongly inhibited DNMT1 and DNMT3B in a concentration-dependent manner”.

What about the anti-cancer effect (Molm13 Xenograft model) of the same compound?
The anti-cancer effect was “potent anti-cancer effect in a dose-dependent manner”.

And the “toxicity signals (body weight changes)” value (Molm13 Xenograft model)?
Its value is “without any toxicity signals”.
